# Laboratory results from PMC8717366, “Synthesis and Pharmacological Characterization of Visabron, a Backbone Cyclic Peptide Dual Antagonist of α4β1 (VLA-4)/α9β1 Integrin for Therapy of Multiple Sclerosis” (JACS Au, 2021).
# Where two headings read alike, the source gives them in different places. Numbered stars: 1 amine (or outer) side, 2 acyl side, 3 side chain; on linkers, the order of the positions; unused ones are H or OH. Bridge positions count the residues as written; N and C are the ends. Square brackets hold non-standard residues; d marks the D form. Peptide text beside a SMILES is read from it. N(2-Aminoethyl)Gly = O=C(CN(CCN[*:3])[*:1])[*:2]; CO = O=C([*:1])[*:2]; Nlys = NCCCCNCC(=O)O
# How the values were obtained:
# [1] = Immunogenicity, antibody titer by ELISA in BALB/c mice; format: in vivo, BALB/c male mice; conditions: 40 days, Figure 8
# Procedure: Figure 8 Antibody titer test in BALB/c mice, 40 days post intraperitoneal administration with natalizumab (18 mg/kg), visabron c (2–2) (150 mg/kg) alone, and administered together with Complete Freund’s Adjuvant (visabron c (2–2) + CFA), as compared to preimmune control serum. The results represent the mean ± SEM (n = 6) of optical absorbance (OD 490 nm) in ELISA. *p ≤ 0.01 compared to control.
# BALB/c male mice, aged 60 days (22 gr) were divided into three groups each containing six mice. The mice were immunized intraperitoneal with 0.5 mL of Visabron c (2–2) (150 mg/kg), 0.25 mL Visabron c (2–2) (150 mg/kg) + 0.25 mL of Freund‘s complete adjuvant, and 0.25 mL natalizumab (18 mg/kg). After 14 days of the first inoculation, the mice received a booster with 0.5 mL of the preparations mentioned above. To verify the presence of antibodies against visabron c (2–2) or natalizumab, the serum collected from mice tail blood was tested 40 days after the first inoculation by indirect ELISA using visabron c (2–2) or natalizumab antigens immobilized to the plate (25 μg per well, diluted in 20 mM carbonate buffer, pH 9.6 overnight incubated at 4 °C). […] The reaction was stopped with 12.5% H2SO4, and absorbance was measured at 490 nm. The results were considered significant when the absorbance was at least two times higher than that obtained with the preimmune serum.
# [2] = 48 h
# Procedure: Eight-week-old C57Bl/6 mice were obtained from Envigo animal breeding center in Israel. All experiments were approved by the Institutional Animal Care and Use Committee, and performed according to OECD guidelines for chemical testing. One group of five mice (7683–87) received visabron c (4–4) by iv injection in a volume of 0.2 mL/mouse at a dose of 10 mg/mice (about 500 mg/kg), and another group of five mice (7688–92) received per-os visabron c (4–4) at a dose of 10 mg/mice, dissolved in a nanoemulsifying drug delivery system,[48] in a bolus of 0.4 mL/mouse. After 48 h of exposure, the animals were sacrificed and the organs were harvested for the detection of possible toxicological lesions in the framework of a safety assessment. Then the organs were fixed in 4% formaldehyde, trimmed in a standard position per organ, and transferred to embedding cassettes. Paraffin blocks were sectioned at approximately 3–5 μm thickness. The sections were applied on a glass slide and stained with hematoxylin and eosin (H&E). Pictures were taken on a microscope (Olympus BX60) at magnifications of X4 and X10 using the microscope’s camera (Olympus DP73). An experienced pathologist (Dr. Loeb Emanuel) examined the slides. Microscopically findings were classified with standard pathological nomenclature and the severity of the findings was graded on a scale of minimal, mild, or severe. Grades of severity for microscopic findings were subjective; minimal was the least extent discernible and severe was the greatest extent possible.
# Table S11. Histological pathological grades of organs slides obtained from mice treated for 48 h with 500 mg/kg Visabron c(4-4)*
# Number** Heart Lung Kidney Intestine Large Stomach Spleen Liver Brain […]
# *Grade 0: no signs of pathological changes; Grade 1: mild pathological changes; Grade 2: moderate pathological changes; Grade 3: severe pathological changes.
# [3] = tested on: cyclooxygenase (COX) enzymes; experiment: SafetyScreen44 enzyme inhibition, cyclooxygenases; format: biochemical; conditions: 1 mM; Figure 6
# Procedure: Screening of potentially significant off-target effects to binding and enzyme targets was performed via SafetyScreen44 offered by Eurofins Cerep-Panlabs. Visabron c (4–4) was tested at 1 and 0.1 mM. Compound binding was calculated as the percentage of inhibition of the binding of a radioactively labeled ligand specific for each target. The compound enzyme inhibitory effect was calculated as the percentage of inhibition of control enzyme activity. Results showing inhibition higher than 40% were considered to represent significant effects of the tested compound. Results showing inhibition lower than 25% as obtained with 0.1 mM Visabron c (4–4) were not considered significant and were mostly attributable to the variability of the signal around the control level. In each experiment, the respective reference compound was tested concurrently with visabron c (4–4), and the data were compared with historical values determined at Eurofins. The experiment was statistically accepted in accordance with the Eurofins validation standard operating procedure.
# [4] = 500 mg/kg i.v., all five mice 7683-7687
# [5] = 500 mg/kg per os, all five mice 7688-7692
smiles,measurement,setting,value
CSCC[C@@H]1NC(=O)[C@H]([C@@H](C)O)NC(=O)CN(C(=O)[C@@H](N)CCCCN)CCNC(=O)NCCN(CC(=O)N[C@@H](CC(C)C)C(N)=O)C(=O)[C@H](CC(=O)O)NC(=O)[C@H](CC(C)C)NC1=O [visabron c (2–2)] (H-K[N(2-Aminoethyl)Gly]TMLD[N(2-Aminoethyl)Gly]L-NH2; linker 2-7 via CO),Antibody production (ELISA vs preimmune serum),[1]; 150 mg/kg intraperitoneal alone,did not induce antibody production
same,Antibody production (ELISA vs preimmune serum),[1]; 150 mg/kg intraperitoneal together with Freund's complete adjuvant,did not induce antibody production
CSCC[C@@H]1NC(=O)[C@H]([C@@H](C)O)NC(=O)CN(C(=O)[C@@H](N)CCCCN)CCCCNC(=O)NCCCCN(CC(=O)N[C@@H](CC(C)C)C(N)=O)C(=O)[C@H](CC(=O)O)NC(=O)[C@H](CC(C)C)NC1=O [visabron c (4–4)] (H-K[Nlys]TMLD[Nlys]L-NH2; linker 2-7 via CO),"Histological pathological grade, Brain",[2]; [4],0
same,"Histological pathological grade, Heart",[2]; [4],0
same,"Histological pathological grade, Kidney",[2]; [4],0
same,"Histological pathological grade, Liver",[2]; [4],0
same,"Histological pathological grade, Lung",[2]; [4],0
same,"Histological pathological grade, Small Intestine",[2]; [4],0
same,"Histological pathological grade, Spleen",[2]; [4],0
same,"Histological pathological grade, Stomach",[2]; [4],0
same,"Histological pathological grade, Large Intestine","[2]; 500 mg/kg i.v., mouse 7683",0
same,"Histological pathological grade, Large Intestine","[2]; 500 mg/kg i.v., mouse 7684, finding considered accidental, most probably not related to the tested compound",3
same,"Histological pathological grade, Large Intestine","[2]; 500 mg/kg i.v., mouse 7685, finding considered accidental, most probably not related to the tested compound",3
same,"Histological pathological grade, Large Intestine","[2]; 500 mg/kg i.v., mouse 7686",0
same,"Histological pathological grade, Large Intestine","[2]; 500 mg/kg i.v., mouse 7687",0
same,"Histological pathological grade, Brain",[2]; [5],0
same,"Histological pathological grade, Heart",[2]; [5],0
same,"Histological pathological grade, Kidney",[2]; [5],0
same,"Histological pathological grade, Liver",[2]; [5],0
same,"Histological pathological grade, Lung",[2]; [5],0
same,"Histological pathological grade, Small Intestine",[2]; [5],0
same,"Histological pathological grade, Spleen",[2]; [5],0
same,"Histological pathological grade, Stomach",[2]; [5],0
same,"Histological pathological grade, Large Intestine","[2]; 500 mg/kg per os, mouse 7688",0
same,"Histological pathological grade, Large Intestine","[2]; 500 mg/kg per os, mouse 7689",0
same,"Histological pathological grade, Large Intestine","[2]; 500 mg/kg per os, mouse 7690, finding considered accidental, most probably not related to the tested compound",2
same,"Histological pathological grade, Large Intestine","[2]; 500 mg/kg per os, mouse 7691",0
same,"Histological pathological grade, Large Intestine","[2]; 500 mg/kg per os, mouse 7692",0
same,Short-term adverse pathological effects on major organs,"[2]; i.v. or per o.s., 500 mg/kg",without short-term adverse pathological effects
same,Inhibition of cyclooxygenase (COX) enzymes,[3],moderately inhibited
